Assay results published in patent US20260152487A1 (Sitryx Therapeutics Limited, priority 2021, published 2026).

Assays:
recombinant human PKM2 = target: T1, recombinant human PKM2 (Homo sapiens, UniProt P14618); assay: Human PKM2 activation assay (Kinase-Glo Plus luminescent detection of generated ATP); type: biochemical; settings: for Emax: percentage activation normalised to DMSO vehicle (LOW) and 5 μM TEPP-46 (HIGH), read-out: hPKM2 Emax; for EC50: recombinant human PKM2 activation, 4-parameter logistic fit, read-out: hPKM2 EC50
T1 construct: His (N); purchased R&D Systems
T1 sequence (P14618 2-531 limits assumed): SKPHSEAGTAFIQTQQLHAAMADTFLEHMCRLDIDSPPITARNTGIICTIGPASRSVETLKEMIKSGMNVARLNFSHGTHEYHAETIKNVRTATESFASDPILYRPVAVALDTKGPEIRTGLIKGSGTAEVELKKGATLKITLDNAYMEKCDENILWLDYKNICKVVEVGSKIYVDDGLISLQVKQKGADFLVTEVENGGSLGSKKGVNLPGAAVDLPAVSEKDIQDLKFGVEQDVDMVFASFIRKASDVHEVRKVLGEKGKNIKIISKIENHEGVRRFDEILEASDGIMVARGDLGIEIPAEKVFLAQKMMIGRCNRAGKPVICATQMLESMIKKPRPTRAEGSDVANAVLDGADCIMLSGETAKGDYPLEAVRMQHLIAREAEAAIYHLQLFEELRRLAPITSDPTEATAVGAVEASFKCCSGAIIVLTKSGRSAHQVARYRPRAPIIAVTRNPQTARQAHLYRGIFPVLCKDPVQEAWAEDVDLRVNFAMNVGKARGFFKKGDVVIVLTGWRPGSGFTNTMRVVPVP
Summary of the method: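 Luminescent ATP detection (Kinase-Glo Plus, 15 min, 26 °C) followed a 60 min, 26 °C shaken reaction of compound with […] His-tagged human PKM2, PEP and ADP in imidazole/KCl/MgCl2 buffer with Tween20 and BSA, pH 7.2.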

A549 cells = assay: A549 cell proliferation in low-serine medium (CellTiter-Glo 2.0 viable cell number); type: cell-based; settings: Homo sapiens, 72 h, 3 days, Assay Medium with 20 μM L-serine
Experimental: The effect of compounds of Formula (Ia) on A549 cell proliferation in low-serine medium was assessed using a luminescence assay of viable cell number (CellTiter-Glo® 2.0, Promega) duplexed with a fluorescent cytotoxicity assessment (CelITox™ Green, Promega). Cell culture reagents were from ThermoFisher unless specified otherwise. Assay reagents were from Sigma-Aldrich unless specified otherwise. Test Compounds were prepared as 10 mM DMSO stocks and dilution series prepared in DMSO for direct dilution into culture medium.
Cells were passaged every 3-4 days at 80-90% confluence. The cell monolayer was washed twice with room-temperature Ca^2+/Mg-free PBS and 4 ml room-temperature trypsin-EDTA added to the flask. After 5 minutes' incubation (37° C., 5% CO2) to detach cells, trypsin was quenched with 13 ml warmed complete growth medium and the cells harvested and diluted to 2.4×10^4 cells/ml for dispensing into 384-well clear-bottom black-walled plates (600 cells/well).
Following overnight incubation, growth medium was aspirated from each well and the cells washed twice with Assay Medium comprising Basal Medium Eagle supplemented with 3% heat-inactivated dialysed FBS plus 2 mM L-glutamine plus 20 μM L-serine (Sigma-Aldrich). After aspiration of the final wash medium, Assay Medium containing Test Compound was added to each well. DMSO vehicle controls were included on each plate.
Cells were incubated for 3 days in a humidified incubator (37° C., 5% CO2) at which point CelITox™ Green and CellTiter-Glo® reagents were prepared according to the manufacturer's instructions. Triton-X was added to HIGH wells for cytotoxicity determination and the plate incubated for 30 minutes (20° C., ambient humidity and pCO2). CelITox™ Green reagent was added to each well and the plate covered, placed on an orbital shaker @450 rpm for 2 minutes, and incubated in the dark for 15 minutes (20° C., ambient humidity and pCO2). Endpoint fluorescence was measured using a plate reader (PHERAstar® FSX, BMG Labtech).
Following cytotoxicity determination, CellTiter-Glo® reagent was added to each well and the plate placed on an orbital shaker @450 rpm for 2 minutes to lyse cells. Plates were incubated in the dark for 15-30 minutes (20° C., ambient humidity and pCO2) prior to endpoint luminescence measurement (PHERAstar® FSX, BMG Labtech).
Proliferation was calculated by normalizing luminescence signals to LOW controls obtained from a parallel plate processed at the time of Test Compound challenge and HIGH (DMSO vehicle) wells from the compound plate. IC50 values were determined from a 4-parameter logistic fit of compound concentration-response curves.

| Compound | Emax (recombinant human PKM2) | EC50 (recombinant human PKM2) | IC50 (A549 cells) |
| --- | --- | --- | --- |
| COc1ccc(S(=O)(=O)c2ccc3c(=O)n(Cc4cc(F)cnc4O)ncc3c2)cc1 [Example 100, 2-((5-fluoro-2-hydroxypyridin-3-yl)methyl)-6-(4-methoxyphenylsulfonyl)phthalazin-1(2H)-one] | 70.8% | 677 nM | 73.9 nM |
| COc1ccc(S(=O)(=O)c2ccc3c(=O)n(Cc4cc(C(C)C)cnc4O)ncc3c2)cc1 [Example 101, 2-((2-hydroxy-5-isopropylpyridin-3-yl)methyl)-6-(4-methoxyphenylsulfonyl)phthalazin-1(2H)-one] | 74.5% | 240 nM | 354 nM |
| O=c1c2ccc(S(=O)(=O)c3ccccc3)cc2cnn1Cc1ccccc1F [Example 32, 2-(2-fluorobenzyl)-6-(phenylsulfonyl)phthalazin-1(2H)-one] | 99.6% | 163 nM | 3.2 nM |
| COc1ccc(C(C)n2ncc3cc(S(=O)(=O)c4ccccc4)ccc3c2=O)cn1 (stereo not drawn) [Example 74, 2-(1-(6-methoxypyridin-3-yl)ethyl)-6-(phenylsulfonyl)phthalazin-1(2H)-one] | 91.2% | 218 nM | 38.7 nM |
| CC(C)n1ccc(Cn2ncc3cc(S(=O)(=O)c4ccccc4)ccc3c2=O)n1 [Example 95, 2-((1-isopropyl-1H-pyrazol-3-yl)methyl)-6-(phenylsulfonyl)phthalazin-1(2H)-one] | 116% | 95.4 nM | 9.9 nM |
| COc1ccc(S(=O)(=O)c2ccc3c(=O)n(Cc4ccc(C)nc4O)ncc3c2)cc1 [Example 98, 2-((2-hydroxy-6-methylpyridin-3-yl)methyl)-6-(4-methoxyphenylsulfonyl)phthalazin-1(2H)-one] | 82% | 257 nM | 9 nM |
| COc1ccccc1Cn1ncc2cc(S(=O)(=O)c3ccccc3)ccc2c1=O [Example 79, 2-(2-methoxybenzyl)-6-(phenylsulfonyl)phthalazin-1(2H)-one] | 90.2% | 203 nM | 19.4 nM |
| O=c1c2ccc(S(=O)(=O)c3ccccc3)cc2cnn1Cc1cccc2nccn12 [Example 34, 2-(imidazo[1,2-a]pyridin-5-ylmethyl)-6-(phenylsulfonyl)phthalazin-1(2H)-one] | 79% | 506 nM | 64.8 nM |
| COc1ccc(F)c(Cn2ncc3cc(S(=O)(=O)c4ccccc4)ccc3c2=O)c1 [Example 33, 2-(2-fluoro-5-methoxybenzyl)-6-(phenylsulfonyl)phthalazin-1(2H)-one] | 105% | 63.3 nM | 1.7 nM |
| O=c1c2ccc(S(=O)(=O)c3ccccc3)cc2cnn1Cc1ccccc1CO [Example 20, 2-(2-(hydroxymethyl)benzyl)-6-(phenylsulfonyl)phthalazin-1(2H)-one] | 90.7% | 249 nM | 6.4 nM |
| COc1cccc(Cn2ncc3cc(S(=O)(=O)c4ccccc4)ccc3c2=O)n1 [Example 37, 2-((6-methoxypyridin-2-yl)methyl)-6-(phenylsulfonyl)phthalazin-1(2H)-one] | 118% | 133 nM | 3.6 nM |
| O=c1c2ccc(S(=O)(=O)c3ccccc3)cc2cnn1Cc1cc2ccccn2n1 [Example 108, 6-(phenylsulfonyl)-2-(pyrazolo[1,5-a]pyridin-2-ylmethyl)phthalazin-1(2H)-one] | 132% | 178 nM | 2 nM |
| Cc1nc(Cn2ncc3cc(S(=O)(=O)c4ccccc4)ccc3c2=O)cs1 [Example 77, 2-((2-methylthiazol-4-yl)methyl)-6-(phenylsulfonyl)phthalazin-1(2H)-one] | 106% | 63 nM | 4 nM |
| COc1ccc(S(=O)(=O)c2ccc3c(=O)n(Cc4cccc5c4CCN5)ncc3c2)cc1 [Example 2, 2-(indolin-4-ylmethyl)-6-((4-methoxyphenyl)sulfonyl)phthalazin-1(2H)-one] | 97% | 66.4 nM | 0.8 nM |
| COc1ccc(S(=O)(=O)c2ccc3c(=O)n(CCc4ccccc4)ncc3c2)cc1 [Example 44, 6-((4-methoxyphenyl)sulfonyl)-2-phenethylphthalazin-1(2H)-one] | 63% | 367 nM | 41.8 nM |
| NC(=O)c1ncccc1Cn1ncc2cc(S(=O)(=O)c3ccccc3)ccc2c1=O [Example 9, 3-((1-oxo-6-(phenylsulfonyl)phthalazin-2(1H)-yl)methyl)picolinamide] | 105% | 362 nM | 17.5 nM |
| COc1ccc(S(=O)(=O)c2ccc3c(=O)n(Cc4ccccc4)ncc3c2)cc1 [Example 50, 2-benzyl-6-((4-methoxyphenyl)sulfonyl)phthalazin-1(2H)-one] | 97.5% | 70.6 nM | 3.1 nM |
| O=c1c2ccc(S(=O)(=O)c3ccccc3)cc2cnn1Cc1ccc2cn[nH]c2c1 [Example 58, 2-((1H-indazol-6-yl)methyl)-6-(phenylsulfonyl)phthalazin-1(2H)-one] | 88.6% | 477 nM | 41.8 nM |
| COc1ccc(S(=O)(=O)c2ccc3c(=O)n(Cc4cccc(OC)c4F)ncc3c2)cc1 [Example 52, 2-(2-fluoro-3-methoxybenzyl)-6-((4-methoxyphenyl)sulfonyl)phthalazin-1(2H)-one] | 101% | 59.7 nM | 1.9 nM |

Compounds with a lower EC50 (recombinant human PKM2), results first:

| Emax (recombinant human PKM2) | EC50 (recombinant human PKM2) | IC50 (A549 cells) | Compound |
| --- | --- | --- | --- |
| 104% | 56.5 nM | 1.2 nM | COc1ccc(S(=O)(=O)c2ccc3c(=O)n(Cc4n[nH]cc4C)ncc3c2)cc1 [Example 104, 6-((4-methoxyphenyl)sulfonyl)-2-((4-methyl-1H-pyrazol-3-yl)methyl)phthalazin-1(2H)-one] |
| 85.8% | 55.2 nM | 1.6 nM | COc1ccc(S(=O)(=O)c2ccc3c(=O)n(Cc4n[nH]c5ccccc45)ncc3c2)cc1 [Example 48, 2-((1H-indazol-3-yl)methyl)-6-((4-methoxyphenyl)sulfonyl)phthalazin-1(2H)-one] |
| 106% | 53.9 nM | 0.7 nM | COc1ccc(S(=O)(=O)c2ccc3c(=O)n(Cc4cccn(C)c4=O)ncc3c2)cc1 [Example 4, 6-((4-methoxyphenyl)sulfonyl)-2-((1-methyl-2-oxo-1,2-dihydropyridin-3-yl)methyl)phthalazin-1(2H)-one] |
| 98.9% | 49.8 nM | 6.7 nM | COc1cccc(Cn2ncc3cc(S(=O)(=O)c4ccccc4)ccc3c2=O)c1 [Example 81, 2-(3-methoxybenzyl)-6-(phenylsulfonyl)phthalazin-1(2H)-one] |
| 96.4% | 45 nM | 2.1 nM | CC1Cc2cc(Cn3ncc4cc(S(=O)(=O)c5ccccc5)ccc4c3=O)ccc2O1 (stereo not drawn) [Example 64, 2-((2-methyl-2,3-dihydrobenzofuran-5-yl)methyl)-6-(phenylsulfonyl)phthalazin-1(2H)-one] |
| 98.8% | 41.3 nM | 0.7 nM | COc1ccc(S(=O)(=O)c2ccc3c(=O)n(Cc4c(F)ccnc4O)ncc3c2)cc1 [Example 103, 2-((4-fluoro-2-hydroxypyridin-3-yl)methyl)-6-(4-methoxyphenylsulfonyl) phthalazin-1(2H)-one] |
| 103% | 35.9 nM | 3.2 nM | COc1ccc(S(=O)(=O)c2ccc3c(=O)n(Cc4ccn(C)n4)ncc3c2)cc1 [Example 72, 6-((4-methoxyphenyl)sulfonyl)-2-((1-methyl-1H-pyrazol-3-yl)methyl)phthalazin-1(2H)-one] |
| 85% | 33.7 nM | 0.8 nM | O=c1c2ccc(S(=O)(=O)c3ccccc3)cc2cnn1Cc1ccc2c(c1)OCCO2 [Example 29, 2-((2,3-dihydrobenzo[b][1,4]dioxin-6-yl)methyl)-6-(phenylsulfonyl)phthalazin-1(2H)-one] |
| 87.9% | 25.5 nM | 0.5 nM | COc1ccc(S(=O)(=O)c2ccc3c(=O)n(Cc4ccc5c(c4)CCO5)ncc3c2)cc1 [Example 47, 2-((2,3-dihydrobenzofuran-5-yl)methyl)-6-((4-methoxyphenyl)sulfonyl)phthalazin-1(2H)-one] |
